From patent publication US6737383B1, “Herbicidal oxadiazolidines” (priority 1999, dated 2004)

Legend:
bedstraw = experiment: Test B pre/postemergence bedstraw; type: in vivo, Galium aparine
How it was run: (§1)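 Herbicidal effect was estimated by eye on a ten-point control scale after plants spent twelve to sixteen days in a greenhouse following soil or foliar treatment. Foliar sprays targeted plants at one to four leaves; all doses were formulated in a non-phytotoxic solvent with surfactant.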

blackgrass = experiment: Test B pre/postemergence blackgrass; type: in vivo, Alopecurus myosuroides
How it was run: as §1

surinam grass = experiment: Test B pre/postemergence surinam grass; type: in vivo, Brachiaria decumbens
How it was run: as §1

cocklebur = experiment: Test B pre/postemergence cocklebur; type: in vivo, Xanthium strumarium
How it was run: as §1

corn = experiment: Test B pre/postemergence corn; type: in vivo, Zea mays
How it was run: as §1

crabgrass = experiment: Test B pre/postemergence crabgrass; type: in vivo, Digitaria sanguinalis
How it was run: as §1

giant foxtail = experiment: Test B pre/postemergence giant foxtail; type: in vivo, Setaria faberii
How it was run: as §1

morningglory = experiment: Test B pre/postemergence morningglory; type: in vivo, Ipomoea hederacea
How it was run: as §1

pigweed = experiment: Test B pre/postemergence pigweed; type: in vivo, Amaranthus retroflexus
How it was run: as §1

rape = experiment: Test B pre/postemergence rape; type: in vivo, Brassica napus
How it was run: as §1

soybean = experiment: Test B pre/postemergence soybean; type: in vivo, Glycine max
How it was run: as §1

sugar beet = experiment: Test B pre/postemergence sugar beet; type: in vivo, Beta vulgaris; details: for Plant response rating, Sugarbeets: Rate 250 g/ha
How it was run: as §1

velvetleaf = experiment: Test B pre/postemergence velvetleaf; type: in vivo, Abutilon theophrasti; details: for Plant response rating, Velvetleaf: Rate 250 g/ha
How it was run: as §1

wheat = experiment: Test B pre/postemergence wheat; type: in vivo, Triticum aestivum; details: for Plant response rating, Wheat: Rate 250 g/ha
How it was run: as §1

wild oat = experiment: Test B pre/postemergence wild oat; type: in vivo, Avena fatua; details: for Plant response rating, Wild oats: Rate 250 g/ha
How it was run: as §1

purple nutsedge = experiment: Test B pre/postemergence purple nutsedge; type: in vivo, Cyperus rotundus
How it was run: as §1

[1] = Preemergence, Rate 62 g/ha, scale 0 to 10 (0 no effect, 10 complete control)
[2] = Preemergence, Rate 125 g/ha, scale 0 to 10 (0 no effect, 10 complete control)
[3] = Preemergence, Rate 250 g/ha, scale of 0 to 10 where 0 is no effect and 10 is complete control
[4] = Preemergence, Rate 500 g/ha, scale 0 to 10 (0 no effect, 10 complete control)
[5] = Rate 500 g/ha, Postemergence, scale 0 to 10, 0 no effect, 10 complete control
[6] = Postemergence, Rate 125 g/ha, scale of 0 to 10 where 0 is no effect and 10 is complete control
[7] = Postemergence, Rate 250 g/ha, scale 0 to 10, 0 no effect, 10 complete control
[8] = Rate 62 g/ha, Postemergence, scale of 0 to 10 where 0 is no effect and 10 is complete control
[9] = Rate 250 g/ha, Postemergence, scale 0 to 10, 0 is no effect, 10 is complete control
[10] = Preemergence, Rate 125 g/ha, 0 is no effect, 10 is complete control
[11] = Preemergence, scale of 0 to 10 where 0 is no effect and 10 is complete control
[12] = Postemergence, scale 0 to 10, 0 is no effect, 10 is complete control

COc1ccccc1Cn1c(=O)on(C(=O)N(c2ccccc2)C(C)C)c1=O [Compound 104]
Bedstraw plant response rating (bedstraw; [1]): 0 | Plant response rating, Bedstraw (bedstraw; [2]): 0 | Plant response rating, Bedstraw (bedstraw; [3]): 0 | Bedstraw plant response rating (bedstraw; [4]): 0 | Bedstraw plant response rating (bedstraw; [5]): 6 | Blackgrass plant response rating (blackgrass; [6]): 0 | Blackgrass plant response rating (blackgrass; [7]): 5 | Blackgrass plant response rating (blackgrass; [1]): 0 | Plant response rating, Blackgrass (blackgrass; [2]): 3 | Plant response rating, Blackgrass (blackgrass; [3]): 6 | Blackgrass plant response rating (blackgrass; [4]): 7 | Blackgrass plant response rating (blackgrass; [8]): 0 | Blackgrass plant response rating (blackgrass; [5]): 6 | B. signalgrass plant response rating (surinam grass; Postemergence, Rate 62 g/ha, scale 0 to 10, 0 is no effect, 10 is complete control): 0 | B. signalgrass plant response rating (surinam grass; [7]): 0 | B. signalgrass plant response rating (surinam grass; [1]): 0 | Plant response rating, B. signalgrass (surinam grass; [2]): 0 | Plant response rating, B. signalgrass (surinam grass; [3]): 5 | B. signalgrass plant response rating (surinam grass; [4]): 6 | B. signalgrass plant response rating (surinam grass; Rate 125 g/ha, Postemergence, scale 0 to 10, 0 no effect, 10 complete control): 0 | B. signalgrass plant response rating (surinam grass; Rate 500 g/ha, Postemergence, scale of 0 to 10 where 0 is no effect and 10 is complete control): 0 | Cocklebur plant response rating (cocklebur; [6]): 0 | Cocklebur plant response rating (cocklebur; [7]): 2 | Plant response rating, Cocklebur (cocklebur; [2]): 0 | Plant response rating, Cocklebur (cocklebur; [3]): 0 | Cocklebur plant response rating (cocklebur; [4]): 0 | Cocklebur plant response rating (cocklebur; [8]): 0 | Cocklebur plant response rating (cocklebur; [5]): 3 | Corn plant response rating (corn; [6]): 0 | Corn plant response rating (corn; [7]): 0 | Corn plant response rating (corn; [1]): 0 | Plant response rating, Corn (corn; [2]): 0 | Plant response rating, Corn (corn; [3]): 0 | Corn plant response rating (corn; [4]): 2 | Corn plant response rating (corn; [8]): 0 | Corn plant response rating (corn; [5]): 0 | Crabgrass plant response rating (crabgrass; [6]): 4 | Crabgrass plant response rating (crabgrass; [7]): 5 | Crabgrass plant response rating (crabgrass; [1]): 0 | Plant response rating, Crabgrass (crabgrass; [2]): 0 | Plant response rating, Crabgrass (crabgrass; [3]): 1 | Crabgrass plant response rating (crabgrass; [4]): 9 | Crabgrass plant response rating (crabgrass; [8]): 0 | Crabgrass plant response rating (crabgrass; [5]): 8 | Giant foxtail plant response rating (giant foxtail; [6]): 3 | Giant foxtail plant response rating (giant foxtail; [7]): 4 | Giant foxtail plant response rating (giant foxtail; [1]): 0 | Plant response rating, Giant foxtail (giant foxtail; [2]): 4 | Plant response rating, Giant foxtail (giant foxtail; [3]): 10 | Giant foxtail plant response rating (giant foxtail; [4]): 10 | Giant foxtail plant response rating (giant foxtail; [8]): 3 | Giant foxtail plant response rating (giant foxtail; [5]): 8 | Morningglory plant response rating (morningglory; [6]): 10 | Morningglory plant response rating (morningglory; [7]): 10 | Morningglory plant response rating (morningglory; [1]): 0 | Plant response rating, Morningglory (morningglory; [2]): 0 | Plant response rating, Morningglory (morningglory; [3]): 0 | Morningglory plant response rating (morningglory; [4]): 0 | Morningglory plant response rating (morningglory; [8]): 10 | Morningglory plant response rating (morningglory; [5]): 10 | Redroot pigweed plant response rating (pigweed; [6]): 3 | Redroot pigweed plant response rating (pigweed; [1]): 0 | Plant response rating, Redroot pigweed (pigweed; [2]): 0 | Plant response rating, Redroot pigweed (pigweed; [3]): 0 | Redroot pigweed plant response rating (pigweed; [4]): 4 | Redroot pigweed plant response rating (pigweed; [8]): 1 | Plant response rating, Redroot pigweed (pigweed; [9]): 3 | Redroot pigweed plant response rating (pigweed; [5]): 7 | Rape plant response rating (rape; [6]): 0 | Rape plant response rating (rape; [7]): 0 | Rape plant response rating (rape; [1]): 0 | Plant response rating, Rape (rape; [2]): 0 | Plant response rating, Rape (rape; [3]): 0 | Rape plant response rating (rape; [4]): 0 | Rape plant response rating (rape; [8]): 0 | Rape plant response rating (rape; [5]): 2 | Soybean plant response rating (soybean; [6]): 5 | Soybean plant response rating (soybean; [1]): 0 | Plant response rating, Soybean (soybean; [2]): 0 | Plant response rating, Soybean (soybean; [3]): 0 | Soybean plant response rating (soybean; [4]): 0 | Soybean plant response rating (soybean; [8]): 4 | Plant response rating, Soybean (soybean; [9]): 5 | Soybean plant response rating (soybean; [5]): 5 | Sugarbeets plant response rating (sugar beet; [6]): 1 | Sugarbeets plant response rating (sugar beet; [1]): 0 | Sugarbeets plant response rating (0 to 10 scale) (sugar beet; [10]): 0 | Plant response rating, Sugarbeets (sugar beet; [11]): 1 | Sugarbeets plant response rating (sugar beet; [4]): 6 | Sugarbeets plant response rating (sugar beet; [8]): 0 | Plant response rating, Sugarbeets (sugar beet; [12]): 1 | Sugarbeets plant response rating (sugar beet; [5]): 3 | Velvetleaf plant response rating (velvetleaf; [6]): 0 | Velvetleaf plant response rating (velvetleaf; [1]): 0 | Velvetleaf plant response rating (0 to 10 scale) (velvetleaf; [10]): 0 | Plant response rating, Velvetleaf (velvetleaf; [11]): 0 | Velvetleaf plant response rating (velvetleaf; [4]): 0 | Velvetleaf plant response rating (velvetleaf; [8]): 0 | Plant response rating, Velvetleaf (velvetleaf; [12]): 3 | Velvetleaf plant response rating (velvetleaf; [5]): 3 | Wheat plant response rating (wheat; [6]): 0 | Wheat plant response rating (wheat; [1]): 0 | Wheat plant response rating (0 to 10 scale) (wheat; [10]): 0 | Plant response rating, Wheat (wheat; [11]): 0 | Wheat plant response rating (wheat; [4]): 4 | Wheat plant response rating (wheat; [8]): 0 | Plant response rating, Wheat (wheat; [12]): 0 | Wheat plant response rating (wheat; [5]): 0 | Wild oats plant response rating (wild oat; [6]): 0 | Wild oats plant response rating (wild oat; [1]): 0 | Wild oats plant response rating (0 to 10 scale) (wild oat; [10]): 2 | Plant response rating, Wild oats (wild oat; [11]): 4 | Wild oats plant response rating (wild oat; [4]): 7 | Wild oats plant response rating (wild oat; [8]): 0 | Plant response rating, Wild oats (wild oat; [12]): 0 | Wild oats plant response rating (wild oat; [5]): 2 | Nutsedge plant response rating (purple nutsedge; [6]): 0 | Nutsedge plant response rating (purple nutsedge; [7]): 0 | Nutsedge plant response rating (purple nutsedge; [1]): 0 | Plant response rating, Nutsedge (purple nutsedge; [2]): 0 | Plant response rating, Nutsedge (purple nutsedge; [3]): 0 | Nutsedge plant response rating (purple nutsedge; [4]): 0 | Nutsedge plant response rating (purple nutsedge; [8]): 0 | Nutsedge plant response rating (purple nutsedge; [5]): 0
